Results published in paper PMC4623604, “Discovery of Small Molecules that Inhibit the Disordered Protein, p27^Kip1” (Scientific Reports, 2015).

Columns and labels:
[1] = target: T1, p27-KID (Homo sapiens, UniProt P46527); test: NMR fragment screening and 2D 1H-15N HSQC chemical shift perturbation mapping; type: binding; set-up: key to Binding Group (site of chemical shift perturbations in p27-KID): Molecules in Group 1 bound to a localized region, F87YY89; molecules in Group 2 bound to this region as well as two others containing two W residues (W60 and W76); settings: 100 μM 15N-p27-KID; for chemical shift perturbations in 2D HSQC spectra of p27-KID: titrated to 30-fold molar excess (3 mM)
T1 construct: 6xHis (N, cleaved yes); made in house; host or cells: E. coli (pET28a)
From the text: We used one-dimensional (1D) ^1H WaterLOGSY[35] and STD[36] […] Fragment molecules were selected from either a commercial library (1,100 compounds from the Ro3 collection, Maybridge/Thermo Fisher Scientific) or an in-house library of 1,222 compounds based on the “Rule of Three”[40] and other criteria (see Methods). […] Binding sites for these compounds were identified by titration into ^15N-p27-KID and analysis of two-dimensional (2D) ^1H-^15N HSQC spectra. […] We termed these molecules Groups 1 and 2, respectively (Fig. 1b,c); representative ^1H CSP histograms are shown in Fig. 1d,e, and ^15N CSPs are presented in Suppl. Fig. 2. Data for all other small molecules are shown in Suppl. Fig. 3.
Screening and validation NMR experiments were performed at 298 K (25 °C) using either a Varian Inova 600 MHz spectrometer equipped with a triple resonance (HCN) room temperature gradient probe or a Bruker Avance 600 MHz spectrometer equipped with TCI cryogenic gradient probe and a SampleJet sample changer. Fragment molecules were initially analyzed as pools of five molecules dissolved at 10 mM each in DMSO-D6. […] For initial fragment screening experiments, one-dimensional (1D) ^1H- and WaterLOGSY[35] NMR spectra were recorded for compound pools without and with protein. […] DMSO-D6 was added to maintain a constant concentration (2% vol/vol). […] Tryptophan and tyrosine, respectively, were titrated into ^15N-p27-KID (100 μM) up to 3 mM. Three-dimensional (3D) backbone triple-resonance experiments to establish resonance assignments for the p27 constructs were performed using the Bruker Avance 600 MHz spectrometer. […] Fig. 12b,c and d,e, respectively. 2D ^1H-^15N TROSY-HSQC NMR experiments with ^2H/^13C/^15N-p27-D2/Cdk2/cyclin A and SJ403 have been recorded at 308 K (35 °C). 2D ^1H-^15N HSQC experiments of representative fragment hits (1 mM of SJ319843, group 1 and SJ403, group 2, respectively) with ^15N-p21-KID (20 μM) were recorded at 298 K using a Bruker Avance 600 MHz spectrometer. NMR spectra were processed using Bruker Topspin software and analyzed using computer-aided resonance assignment (CARA) software.
Chemical shift perturbations are generally quantified as combined ^1H and ^15N chemical shift values. […] Thus, the use of a combined chemical shift values would mask the effects of compound binding. […] Thus, the assessment of statistical significance was based upon whether a particular CSP value was larger than, i) the experimental spectral resolution in the given dimension (^1H or ^15N) and ii) the quantity, Δδave + 2σ, for that dimension.

[2] = target: T1, p27-KID; test: NMR 2D 1H-15N in-phase HSQC titration, binding affinity for p27:small molecule interactions; settings: sixteen-point titration, 100 μM 15N-p27-KID, inhibitor 0-3 mM
Protocol: 1D and 2D NMR analysis of these molecules led to the identification of 15 additional p27-D2-binding compounds (six with Group 1-like binding features and nine with Group 2-like features; Suppl. Fig. 3b and Suppl. Table 1b).
Sixteen point titrations of representative fragment hits from Group 1 and Group 2 (SJ572710 and SJ572403, respectively) into ^15N-p27-KID (100 μM) were recorded using an adopted “in-phase” 2D ^1H-^15N HISQC with proton decoupling during ^15N chemical shift labeling achieved with a WALTZ16 composite pulse with an amplitude of 7.1 kHz[54][55]. All experiments were collected at a Bruker Avance 800 MHz spectrometer equipped with TCI cryogenic gradient probe. The following molar ratios of ^15N-p27-KID (100 μM) to inhibitor were used: 1:0, 1:0.1, 1:1.5, 1:3, 1:4.5, 1:6, 1:7.5, 1:9, 1:10.5, 1:12, 1:15, 1:18, 1:21, 1:24, 1:27 and 1:30. Each spectrum was recorded with 256 (t1,max = 31.0 ms) and 1024 (t2,max = 106.5 ms) complex points in the ^15N and ^1H dimensions, respectively, with eight transients collected per point. The spectral resolution of the ^1H and ^15N dimensions was 2.4 and 1.7 Hz, respectively. […] The data was processed using the NMRPipe package[56] and analyzed using in-house scripts written in Python using the Scipy computing libraries and Mathematica (Wolfram Research). […]

[3] = target: T2, Cdk2/cyclin A (Homo sapiens, UniProt P24941); test: Fluorescence anisotropy analysis of Cdk2/cyclin A binding to p27-D2-FL; settings: Alexa Fluor 488 labeled p27-D2
T2 construct: Full length human Cdk2, active Cdk2 (phosphorylated at threonine 160); truncated human cyclin A (residues 173–432); made in house
Protocol: Figure 4 Fluorescence anisotropy analysis of displacement of p27-D2-FL from Cdk2/cyclin A by SJ403. (a) Fluorescence anisotropy analysis of Cdk2/cyclin A binding to p27-D2-FL. The starting condition (20 nM p27-D2-FL, 300 nM Cdk2/cyclin A) for assessing the effect of fragment hit SJ403 on p27 function is represented as the red circle on the binding isotherm. (b) Titration of SJ403 (0–3 mM) caused the displacement of p27-D2 from Cdk2/cyclin A, resulting in a decrease in fluorescence anisotropy values. Experiments were performed in triplicate and average values and the standard deviations of the means are shown.
The p27-D2-C99S-R93C mutant was conjugated with Alexa Fluor488-C5-Maleimide (Life Technologies, p27-D2-FL) in buffer containing 20 mM Na phosphate, pH7.3, 20 mM NaCl according to the manufacturer’s protocol. The conjugated protein was further purified by reverse-phase high performance liquid chromatography (HPLC) using a C4 column (Vydac) and 0.1% trifluoroacetic acid-containing water/acetonitrile solvent system. […] Fluorescence anisotropy measurements were performed at 25 °C on a Horiba Fluorolog 3 spectrofluorometer. […] All samples have been incubated overnight in the dark at 4 °C prior to fluorescence measurements. Fluorescence anisotropy binding data was analyzed using KaleidaGraph. […]

[4] = target: T2, Cdk2/cyclin A; test: Cdk2/cyclin A kinase activity assay (Histone H1 substrate); type: biochemical
Protocol: Cdk2/Cyclin A (200 pM) was mixed with Histone H1 (15 μM; EMD Millipore), p27-D2 (200 nM) and varied amounts of lyophilized SJ403 and incubated overnight at 4 °C. The effect of the SJ403 compound on Cdk2 activity was determined by performing similar experiments in the absence of p27-D2. Subsequently, ATP (50 μM total concentration, of which 6 μCi γ ^32P-ATP (PerkinElmer, Inc)) was added to each reaction and further incubated for 35 minutes at 30 °C. […] The sample buffer contained 20 mM HEPES pH 7.3, 25 mM sodium β-glycerolphosphate, 15 mM MgCl2, 16 mM EGTA, 0.5 mM Na3VO4 and 10 mM DTT. The reactions were quenched by addition of SDS-gel loading buffer (5 μL) and then analyzed by SDS-PAGE (10 μL). The gels were dried at 70 °C under vacuum and a phosphoimager (GE Healthcare, Piscataway, NJ) was used to quantify the ^32P-Histone H1 bands. IC50 values were determined by curve fitting using KaleidaGraph software. Experiments were performed in triplicate and mean IC50 and standard deviations of the mean values are reported.

T1 sequence (P46527 22-105): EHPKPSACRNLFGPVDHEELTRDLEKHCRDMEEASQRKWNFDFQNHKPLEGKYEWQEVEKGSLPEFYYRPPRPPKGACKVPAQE

O=c1oc2cc(OCCO)ccc2c2c1CCCC2 [SJ710]
Binding Group (site of chemical shift perturbations in p27-KID) ([1]; 2D 1H-15N HSQC): Group 1 | Kd [2]: 4800 ± 1300 µM

N[C@@H](Cc1c[nH]c2ccccc12)C(=O)O [tryptophan, reference compound]
chemical shift perturbations in 2D HSQC spectra of p27-KID [1]: neither aromatic amino acid cause chemical shift perturbations

N[C@@H](Cc1ccc(O)cc1)C(=O)O [tyrosine, reference compound]
chemical shift perturbations in 2D HSQC spectra of p27-KID [1]: neither aromatic amino acid cause chemical shift perturbations

p27-D2: D2 sub-domain of p27, residues 58-105 of human p27 (RKWNFDFQNHKPLEGKYEWQEVEKGSLPEFYYRPPRPPKGACKVPAQE; UniProt P46527 58-105, looked up, fragment)
Kd [3]: 0.073 ± 0.008 µM | IC50 ([4]; 200 pM Cdk2/cyclin A, Histone H1 substrate, read-out: IC50, inhibition of Cdk2/cyclin A): 0.152 ± 0.039 µM | Cdk2 kinase activity maintained (of full kinase activity) ([4]; 200 nM p27-D2, 200 pM Cdk2/cyclin A, before SJ403): ~ 13%
